A word on the IC50: it is the midpoint of a concentration-inhibition curve. A low value points to inhibition by little substance.

One assay concerns the target mSTING (Mus musculus, UniProt Q3TBT3). Description: Radiometric filtration binding competition assay, mSTING.
Another assay concerns the target STING protein (Homo sapiens (Human), UniProt Q86WV6, H232R). The assay can be described thus: Cell based reporter assay of IRF activation (IRF-luciferase), THP1-dual-KI R232. Particulars: read-out: THP1-dual-KI R232_IRF(Luciferase)_Activity Maximum measured (%).
Another assay addresses hSTING-WT (Homo sapiens (Human), UniProt Q86WV6, H232R). The assay can be described thus: Radiometric filtration binding competition assay, hSTING-WT.
In the next assay the target is hSTING-R232 (Homo sapiens (Human), UniProt Q86WV6, H232R). Description: STING differential scanning fluorimetry (DSF) assay, WT human STING. Particulars: WT (R232) human STING aa140-379, net shift in melting temperature.
Chain of hSTING-R232 (Q86WV6 140-379 H232R): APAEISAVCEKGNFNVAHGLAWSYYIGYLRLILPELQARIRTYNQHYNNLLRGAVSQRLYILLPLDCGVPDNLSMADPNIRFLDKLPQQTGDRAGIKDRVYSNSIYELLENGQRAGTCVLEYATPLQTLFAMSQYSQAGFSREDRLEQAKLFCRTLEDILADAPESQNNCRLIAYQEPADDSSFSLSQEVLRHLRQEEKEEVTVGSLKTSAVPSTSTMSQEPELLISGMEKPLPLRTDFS

Chain of STING protein (Q86WV6 whole entry H232R): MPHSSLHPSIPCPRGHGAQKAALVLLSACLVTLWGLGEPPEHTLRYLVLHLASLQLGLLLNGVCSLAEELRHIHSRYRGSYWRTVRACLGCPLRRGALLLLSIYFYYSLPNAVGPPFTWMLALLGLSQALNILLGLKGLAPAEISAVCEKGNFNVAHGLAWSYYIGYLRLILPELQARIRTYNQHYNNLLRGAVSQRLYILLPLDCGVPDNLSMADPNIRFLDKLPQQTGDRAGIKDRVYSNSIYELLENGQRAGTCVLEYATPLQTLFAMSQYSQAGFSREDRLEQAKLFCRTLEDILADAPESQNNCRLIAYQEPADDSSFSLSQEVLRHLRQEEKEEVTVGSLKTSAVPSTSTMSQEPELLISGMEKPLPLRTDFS
Chain of hSTING-WT (Q86WV6 140-379 H232R): as the sequence (Q86WV6 140-379 H232R) above
Method for hSTING-R232: A STING DSF assay was performed to determine protein thermostability shift in response to small molecule ligand binding. A STING thermostability shift assay based on differential scanning fluorimetry was used to measure (1) the net shift in melting temperature (ΔTm)between the apo and ligand-bound states of the STING protein and (2) the concentration of the thermal denaturation transition (EC50) as a surrogate measure of binding affinity (K). […] Protein in assay buffer was transferred to a 384 well plate and incubated with the hydrophobic fluorescent dye SYBR Orange. A temperature ramp was applied to the plate and the resulting dye fluorescence was plotted as a function of temperature. The first derivative of this function (dF/dT) was then used to extrapolate the melting temperature of the protein at various concentrations of compound and determine the thermal denaturation profile of a protein/compound complex.
• 1. Protein construct (affinity tag removal vs SUMO-fusion construct) • 2. Protein concentration • 3. Dye concentration • 4. Buffer • 5. Thermal ramp velocity • 6. DMSO tolerance • 7. Compound titration parameters • 8. […] 5 μM purified Target STING Protein • 3. 8 μM Sypro Orange Dye • 4. Buffer: 100 mM NaCl, 30 mM HEPES, pH 7.5 • 5. Thermal Ramp: 0.5° C./min • 6. <1% DMSO • 7. 11 point, 2 fold dilution, duplicate, 300 μM high concentrations • 8.

For the compound `O=C(O)Cn1c2cc(-c3ccoc3)ccc2c(=O)c2ccc(Cl)c(Cl)c21` [Compound 183], the concentration for half-maximal inhibition (IC50) on mSTING and on hSTING-WT was 20 to 100 µM each time. For the same compound, at STING protein, the Emax lay in the range of 25 to 50%. Moreover, the “WT_DSF_hSWAT Tm Shift (° C.)” value at hSTING-R232 was “C (“C” = 2-7° C,)”.
With `Cc1c(C(C)C)ccc2c(=O)c3ccc(Cl)c(Cl)c3n(CC(=O)O)c12` [Compound 193], the IC50 was more than 300 µM on mSTING and 20 to 100 µM on hSTING-WT. Besides, at hSTING-R232, the “WT_DSF_hSWAT Tm Shift (° C.)” value is reported as “A (“A” < 0° C.)”.
On to `O=C(O)Cn1c2cc(N3CCCCC3)ccc2c(=O)c2ccc(Cl)c(Br)c21` [Compound 198], for which the IC50 on mSTING and at hSTING-WT was 100 to 300 µM in each case. Besides, at hSTING-R232, the “WT_DSF_hSWAT Tm Shift (° C.)” value is on record as “C (“C” = 2-7° C,)”.
`O=C(O)Cn1c2cc(C3=CCC(O)CC3)ccc2c(=O)c2ccc(Cl)c(Cl)c21` (stereo not drawn) [Compound 213]: the figures for the IC50 on mSTING and at hSTING-WT were 20 to 100 µM and 100 to 300 µM, respectively. Further, the “WT_DSF_hSWAT Tm Shift (° C.)” value at hSTING-R232 is recorded as “C (“C” = 2-7° C,)”.
Consider `O=C(O)Cn1c2ccccc2c(=O)c2ccc(Cl)c(Oc3nccc4ccccc34)c21` [Compound 243], for which the IC50 at mSTING was in the range of 100 to 300 µM; at hSTING-WT, 20 to 100 µM. Moreover, the Emax on STING protein is less than 5%. For the same compound, the “WT_DSF_hSWAT Tm Shift (° C.)” value on hSTING-R232 is listed as “A (“A” < 0° C.)”.
In the case of `COc1c(Cl)ccc2c(=O)c3ccc(C4CCCOC4)cc3n(CC(=O)O)c12` (stereo not drawn) [Compound 253], the IC50 on mSTING and at hSTING-WT was 20 to 100 µM each time. On STING protein, the Emax was more than 50%. On hSTING-R232, the “WT_DSF_hSWAT Tm Shift (° C.)” value is “D (“D” > 7° C.)”.
For `O=C(O)Cn1c2ccccc2c(=O)c2ccc(Cl)c(-c3ccccc3)c21` [Compound 256], the IC50 at mSTING was 20 to 100 µM; on hSTING-WT, 100 to 300 µM. Also, on hSTING-R232, the “WT_DSF_hSWAT Tm Shift (° C.)” value was “C (“C” = 2-7° C,)”.
On to `COc1c(Cl)ccc2c(=O)c3ccc(C(C)C)cc3n(CC(=O)NS(=O)(=O)C(F)(F)F)c12` [Compound 261], for which the IC50 on mSTING and on hSTING-WT was 20 to 100 µM throughout. Further, on STING protein, the Emax was less than 5%. The “WT_DSF_hSWAT Tm Shift (° C.)” value at hSTING-R232 is recorded as “C (“C” = 2-7° C,)”.
Turning to `COc1c(Cl)ccc2c(=O)c3cc(Br)c(C(C)C)cc3n(CC(=O)O)c12` [Compound 268], the IC50 at mSTING lay in the range of 100 to 300 µM; on hSTING-WT, 20 to 100 µM. On STING protein, the Emax was more than 50%. For the same compound, at hSTING-R232, the “WT_DSF_hSWAT Tm Shift (° C.)” value is recorded as “C (“C” = 2-7° C,)”.
Consider `CSc1c(Cl)ccc2c(=O)c3ccc(-c4ccc(O)cc4)cc3n(CC(=O)O)c12` [Compound 271], for which the IC50 on mSTING and at hSTING-WT was less than 20 µM each time. At STING protein, the Emax was more than 50%. Besides, on hSTING-R232, the “WT_DSF_hSWAT Tm Shift (° C.)” value is given as “D (“D” > 7° C.)”.
Consider `C#CCOc1c(Cl)ccc2c(=O)c3ccccc3n(CC(=O)O)c12` [Compound 272], for which the IC50 was more than 300 µM on mSTING and 100 to 300 µM at hSTING-WT. Moreover, the Emax at STING protein is less than 5%. Besides, the “WT_DSF_hSWAT Tm Shift (° C.)” value on hSTING-R232 is on record as “B (“B” = 0-2° C.)”.
In the case of `C=CCOc1c(Cl)ccc2c(=O)c3ccccc3n(CC(=O)O)c12` [Compound 273], the IC50 on mSTING and at hSTING-WT was 20 to 100 µM each time. Moreover, the Emax on STING protein was more than 50%. For the same compound, at hSTING-R232, the “WT_DSF_hSWAT Tm Shift (° C.)” value is recorded as “C (“C” = 2-7° C,)”.
Consider `COc1c(Cl)ccc2c(=O)c3ccc(-c4cccc(N)c4)cc3n(CC(=O)O)c12` [Compound 275], for which the IC50 on mSTING is less than 20 µM; on hSTING-WT, 20 to 100 µM. The Emax on STING protein is more than 50%. For the same compound, the “WT_DSF_hSWAT Tm Shift (° C.)” value at hSTING-R232 is reported as “D (“D” > 7° C.)”.
In the case of `CSc1c(Cl)ccc2c(=O)c3ccc(Nc4ncccn4)cc3n(CC(=O)O)c12` [Compound 276], the half-inhibitory concentration (IC50) on mSTING and at hSTING-WT was less than 20 µM throughout. The Emax on STING protein was more than 50%. For the same compound, the “WT_DSF_hSWAT Tm Shift (° C.)” value at hSTING-R232 is on record as “D (“D” > 7° C.)”.
On to `CSc1c(Cl)ccc2c(=O)c3ccc(C)cc3n(CC(=O)O)c12` [Compound 279], for which the IC50 on mSTING and at hSTING-WT was 20 to 100 µM each time. In addition, the Emax on STING protein is more than 50%. For the same compound, on hSTING-R232, the “WT_DSF_hSWAT Tm Shift (° C.)” value is recorded as “D (“D” > 7° C.)”.
For `CSc1c(Cl)ccc2c(=O)c3ccc(C(C)C)cc3n(CC(=O)O)c12` [Compound 281], the IC50 at mSTING and at hSTING-WT was less than 20 µM throughout. The Emax at STING protein is more than 50%. Also, the “WT_DSF_hSWAT Tm Shift (° C.)” value on hSTING-R232 is listed as “D (“D” > 7° C.)”.
With `CCOc1c(Cl)ccc2c(=O)c3ccc(C)cc3n(CC(=O)O)c12` [Compound 282], the Emax at STING protein was more than 50%. At hSTING-WT, this compound gave an IC50 of 20 to 100 µM. Besides, on hSTING-R232, the “WT_DSF_hSWAT Tm Shift (° C.)” value is given as “D (“D” > 7° C.)”.
`CCCOc1c(Cl)ccc2c(=O)c3ccccc3n(CC(=O)O)c12` [Compound 284]: the Emax at STING protein fell in the range of 5 to 25%. For the same compound, the half-inhibitory concentration (IC50) on hSTING-WT was more than 300 µM. Also, the “WT_DSF_hSWAT Tm Shift (° C.)” value on hSTING-R232 is listed as “C (“C” = 2-7° C,)”.
The like results for `O=C(O)Cn1c2ccccc2c(=O)c2ccc(Cl)c(Oc3ccccc3)c21` [Compound 287] were, in that order, less than 5%, more than 300 µM and “B (“B” = 0-2° C.)”.
For the compound `CNc1ccc2c(=O)c3ccc(Cl)c(OC)c3n(CC(=O)O)c2c1` [Compound 299], the Emax at STING protein was more than 50%. Further, on hSTING-WT, the concentration for half-maximal inhibition (IC50) is 20 to 100 µM. Further, the “WT_DSF_hSWAT Tm Shift (° C.)” value on hSTING-R232 is reported as “C (“C” = 2-7° C,)”.
For `COc1c(Cl)ccc2c(=O)c3ccc(NC(C)C)cc3n(CC(=O)O)c12` [Compound 300], the Emax on STING protein was more than 50%. The half-maximal inhibitory concentration (IC50) on hSTING-WT was 20 to 100 µM. In addition, the “WT_DSF_hSWAT Tm Shift (° C.)” value on hSTING-R232 is “C (“C” = 2-7° C,)”.
The like results for `O=C(O)Cn1c2ccccc2c(=O)c2ccc(Cl)c(-c3cccnc3)c21` [Compound 334] were, in that order, less than 5%, more than 300 µM and “C (“C” = 2-7° C,)”.
The corresponding values for `CC(C)Nc1ccc2c(=O)c3ccc(Cl)c(-c4ccccc4)c3n(CC(=O)O)c2c1` [Compound 336] are more than 50%, less than 20 µM and “D (“D” > 7° C.)”.
The corresponding values for `COc1c(Cl)ccc2c(=O)c3ccc(C)cc3n(CC(=O)NC#N)c12` [Compound 338] are 25 to 50%, 100 to 300 µM and “C (“C” = 2-7° C,)”.
As for `CONC(=O)Cn1c2cc(C)ccc2c(=O)c2ccc(Cl)c(OC)c21` [Compound 339], at STING protein, the Emax was 25 to 50%. Besides, on hSTING-WT, the IC50 is more than 300 µM. For the same compound, the “WT_DSF_hSWAT Tm Shift (° C.)” value on hSTING-R232 is “B (“B” = 0-2° C.)”.
On to `COc1c(Cl)ccc2c(=O)c3ccc(C)cc3n(CC(=O)NS(C)(=O)=O)c12` [Compound 347], for which, at STING protein, the Emax was more than 50%. Moreover, on hSTING-WT, the IC50 lay within 100 to 300 µM. Moreover, on hSTING-R232, the “WT_DSF_hSWAT Tm Shift (° C.)” value was “C (“C” = 2-7° C,)”.
The like results for `COc1c(Cl)ccc2c(=O)c3ccc(C)cc3n(CC(=O)NS(=O)(=O)C3CC3)c12` [Compound 348] were, in that order, more than 50%, 100 to 300 µM and “C (“C” = 2-7° C,)”.
The corresponding values for `CCS(=O)(=O)NC(=O)Cn1c2cc(C)ccc2c(=O)c2ccc(Cl)c(OC)c21` [Compound 349] are more than 50%, more than 300 µM and “C (“C” = 2-7° C,)”.
In the case of `CC(C)c1ccc2c(=O)c3ccc(Cl)c(Cl)c3n(CC(=O)NS(C)(=O)=O)c2c1` [Compound 352], the Emax at STING protein was more than 50%. Further, at hSTING-WT, the IC50 fell in the range of 20 to 100 µM. Further, on hSTING-R232, the “WT_DSF_hSWAT Tm Shift (° C.)” value is given as “C (“C” = 2-7° C,)”.

Values taken from patent US11414387B2, “Oxoacridinyl acetic acid derivatives and methods of use” (Stingthera, Inc., priority 2017, dated 2022).
